What follows are compounds tested against AMPK (assay: AMPK activation, enzyme-linked immunosorbent assay). Details: Table 8, compounds of Table 1.
Assay type: biochemical
Procedure, shortened: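 Read-out: ELISA, used to detect compound-driven activation of AMPK.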

| EC50 [nM] | SMILES |
| --- | --- |
| 1000 to 5000 | O=C(N[C@@H]1CCN(S(=O)(=O)c2cccnc2)C1)c1cc2cc(OC3CCN(c4ccc(C(F)(F)F)cc4)CC3)ccc2o1 [Compound 1-126, (R)-N-(1-(pyridin-3-ylsulfonyl)pyrrolidin-3-yl)-5-(1-(4-(trifluoromethyl)phenyl)piperidin-4-yloxy)benzofuran-2-carboxamide] |
| < 100 | COC(=O)c1ccc(CN2CCC(NC(=O)c3ccc(OC4CCN(c5ccc(C(F)(F)F)cc5)CC4)cn3)CC2)cc1 [Compound 1-8, methyl 4-((4-(5-(1-(4-(trifluoromethyl)phenyl)piperidin-4-yloxy)picolinamido)piperidin-1-yl)methyl)benzoate] |
| < 100 | O=C(NC1CCN(Cc2cccnc2)CC1)c1sc2cc(OC3CCN(c4ccc(C(F)(F)F)cc4)CC3)ccc2c1Cl [Compound 1-152, 3-chloro-N-(1-(pyridin-3-ylmethyl)piperidin-4-yl)-6-(1-(4-(trifluoromethyl)phenyl)piperidin-4-yloxy)benzo[b] thiophene-2-carboxamide] |
| < 100 | N#Cc1ccc(CN2CCC(NC(=O)c3cc4cc(O[C@@H]5CCN(Cc6ccc(OC(F)(F)F)cc6)C[C@H]5F)ccc4o3)CC2)cc1 [Compound 1-168, N-(1-(4-cyanobenzyl)piperidin-4-yl)-5-((3,4-trans)-3-fluoro-1-(4-(trifluoromethoxy)benzyl)piperidin-4-yloxy)benzofuran-2-carboxamide] |

Same assay, conditions: Table 9, compounds of Table 2

| EC50 [nM] | SMILES |
| --- | --- |
| < 500 | O=C(NC1CCN(Cc2cccnc2)CC1)c1ccc2[nH]c3c(c2c1)CN(Cc1ccc(C(F)(F)F)cc1)CC3 [Compound 2-11, N-(1-(pyridin-3-ylmethyl)piperidin-4-yl)-2-(4-(trifluoromethyl)benzyl)-2,3,4,5-tetrahydro-1H-pyrido[4,3-b]indole-8-carboxamide] |
| > 100000 | NC(=O)c1ccc(CN2CCc3[nH]c4ccc(C(=O)NC5CCN(Cc6ccc(F)cc6)CC5)cc4c3C2)cc1 [Compound 2-48, 2-(4-carbamoylbenzyl)-N-(1-(4-fluorobenzyl)piperidin-4-yl)-2,3,4,5-tetrahydro-1H-pyrido[4,3-b]indole-8-carboxamide] |

Same assay, conditions: Table 10, compounds of Table 3

| EC50 [nM] | SMILES |
| --- | --- |
| 100 to 1000 | O=C(c1ccncc1)N1CC2CC1CN2C(=O)c1nc2ccc(OC3CCN(c4ccc(C(F)(F)F)cc4)CC3)cc2o1 (stereo not shown) [Compound 3-11, (5-isonicotinoyl-2,5-diazabicyclo[2.2.1]heptan-2-yl)(6-(1-(4-(trifluoromethyl)phenyl)piperidin-4-yloxy)benzo[d]oxazol-2-yl)methanone] |
| < 100 | N#Cc1ccc(CN2CCC(NC(=O)c3cnc(OC4CCN(Cc5ccc(C(F)(F)F)cc5)CC4)s3)CC2)cc1 [Compound 3-25, N-(1-(4-cyanobenzyl)piperidin-4-yl)-2-(1-(4-(trifluoromethyl)benzyl)piperidin-4-yloxy)thiazole-5-carboxamide] |
| < 100 | N#Cc1ccc(CN2CCC(NC(=O)c3cnc(OC4CCN(c5ccc(C(F)(F)F)cc5)CC4)s3)CC2)cc1 [Compound 3-23, N-(1-(4-cyanobenzyl)piperidin-4-yl)-2-(1-(4-(trifluoromethyl)phenyl)piperidin-4-yloxy)thiazole-5-carboxamide] |

Same assay, conditions: Table 12, compounds of Table 5

| EC50 [nM] | SMILES |
| --- | --- |
| < 1000 | O=C(NC1CCN(Cc2ccncc2)CC1)c1ccc(OC2CCN(c3ccc(C(F)(F)F)cc3)CC2)c(F)c1 [Compound 5-28, 3-fluoro-N-(1-(pyridin-4-ylmethyl)piperidin-4-yl)-4-(1-(4-(trifluoromethyl)phenyl)piperidin-4-yloxy)benzamide] |
| < 1000 | CC(C)(C)OC(=O)N1CCC(NC(=O)c2ccc(OC3CCN(c4ccc(C(F)(F)F)cc4)CC3)c(F)c2)CC1 [Compound 5-26, tert-butyl 4-(3-fluoro-4-(1-(4-(trifluoromethyl)phenyl)piperidin-4-yloxy)benzamido)piperidine-1-carboxylate] |
| > 100000 | O=C(NC1CCN(Cc2ccccc2)CC1)c1ccc(OC2CCNCC2)c(Cl)c1 [Compound 5-93, N-(1-benzylpiperidin-4-yl)-3-chloro-4-(piperidin-4-yloxy)benzamide] |
| 1000 to 10000 | CC(c1ccccc1)N1CCC(Oc2ccc(C(=O)NC3CCN(Cc4ccccc4)CC3)cc2F)CC1 (stereo not shown) [Compound 5-21, N-(1-benzylpiperidin-4-yl)-3-fluoro-4-(1-(1-phenylethyl)piperidin-4-yloxy)benzamide] |
| > 100000 | O=C(NC1CCN(c2ccccc2)CC1)c1ccc(OC2CCN(c3ccc(C(F)(F)F)cc3)CC2)c(F)c1 [Compound 5-25, 3-fluoro-N-(1-phenylpiperidin-4-yl)-4-(1-(4-(trifluoromethyl)phenyl)piperidin-4-yloxy)benzamide] |
| < 1000 | Cc1ccc(CN2CCC(Oc3ccc(C(=O)NC4CCN(Cc5ccc(F)cc5)CC4)cc3Cl)CC2)cc1 [Compound 5-68, 3-chloro-N-(1-(4-fluorobenzyl)piperidin-4-yl)-4-(1-(4-methylbenzyl)piperidin-4-yloxy)benzamide] |
| 20000 to 50000 | COc1cc(C(=O)NC2CCN(Cc3ccccc3)CC2)ccc1OC1CCN(S(C)(=O)=O)CC1 [Compound 5-9, N-(1-benzylpiperidin-4-yl)-3-methoxy-4-(1-(methylsulfonyl)piperidin-4-yloxy)benzamide] |
| < 1000 | O=C(NC1CCN(Cc2ccccc2)CC1)c1ccc(OC2CCN(Cc3ccc(C(F)(F)F)cc3)CC2)c(F)c1 [Compound 5-55, N-(1-benzylpiperidin-4-yl)-3-fluoro-4-(1-(4-(trifluoromethyl)benzyl)piperidin-4-yloxy)benzamide] |

Same assay, conditions: Table 13, compounds of Table 6

| EC50 [nM] | SMILES |
| --- | --- |
| 1000 to 10000 | N#Cc1ccc(CN2CCC(NC(=O)c3cc4cc(NC(=O)c5cnn(Cc6ccc(C(F)(F)F)cc6)c5)ccc4o3)CC2)cc1 [Compound 6-72, N-(2-(1-(4-cyanobenzyl)piperidin-4-ylcarbamoyl)benzofuran-5-yl)-1-(4-(trifluoromethyl)benzyl)-1H-pyrazole-4-carboxamide] |
| < 100 | COc1ccc(CN2CCC(NC(=O)c3cc4cc(C(=O)N5CCC(Oc6ccc(S(=O)(=O)C(F)(F)F)cc6)CC5)ccc4o3)CC2)cc1F [Compound 6-137, N-(1-(3-fluoro-4-methoxybenzyl)piperidin-4-yl)-5-(4-(4-(trifluoromethylsulfonyl)phenoxy)piperidine-1-carbonyl)benzofuran-2-carboxamide] |
| 1000 to 10000 | CS(=O)(=O)c1ccc(CN2CCN(C(=O)c3ccc4oc(C(=O)NC5CCN(Cc6ccc(S(=O)(=O)N7CCCC7)cc6)CC5)cc4c3)CC2)cc1 [Compound 6-159, 5-(4-(4-(methylsulfonyl)benzyl)piperazine-1-carbonyl)-N-(1-(4-(pyrrolidin-1-ylsulfonyl)benzyl)piperidin-4-yl)benzofuran-2-carboxamide] |
| 100 to 1000 | N#Cc1ccc(CN2CCC(NC(=O)c3cc4cc(NC(=O)c5cnn(-c6ccc(F)cc6)c5)ccc4o3)CC2)cc1 [Compound 6-66, N-(2-(1-(4-cyanobenzyl)piperidin-4-ylcarbamoyl)benzofuran-5-yl)-1-(4-fluorophenyl)-1H-pyrazole-4-carboxamide] |

Same assay, conditions: Table 14, compounds of Table 7

| EC50 [nM] | SMILES |
| --- | --- |
| < 1000 | O=C(NC1CCN(Cc2ccc(OC(F)(F)F)cc2)C[C@H]1F)c1ccc(C(=O)N2CCC(C(=O)c3ccc(N4CCCC4)cc3)CC2)nc1 (stereo partly drawn) [Compound 7-57, N-((3,4-trans)-3-fluoro-1-(4-(trifluoromethoxy)benzyl)piperidin-4-yl)-6-(4-(4-(pyrrolidin-1-yl)benzoyl)piperidine-1-carbonyl) nicotinamide] |
